We go through 19 compounds from US9040545B2, “Heterocyclyl pyrazolopyrimidine analogues as selective JAK inhibitors” (Cellzome Limited, priority 2010, dated 2015).

For the experiment, the target named is T1, Aurora B (Homo sapiens, UniProt Q96GD4).
T1 construct: cell lysates from Jurkat cells (ATCC TIB-152) used; endogenous in cells; host or cells: Jurkat cells (ATCC TIB-152), treated with pervanadate
Kind of experiment: Kinobeads assay, Aurora B. As to conditions: for pIC50: lysate of pervanadate-treated Jurkat cells, read-out: Inhibition values (IC50) Aur B. In kind it is binding.

pIC50: −log10 of the molar value.

T1 sequence (Q96GD4 whole entry): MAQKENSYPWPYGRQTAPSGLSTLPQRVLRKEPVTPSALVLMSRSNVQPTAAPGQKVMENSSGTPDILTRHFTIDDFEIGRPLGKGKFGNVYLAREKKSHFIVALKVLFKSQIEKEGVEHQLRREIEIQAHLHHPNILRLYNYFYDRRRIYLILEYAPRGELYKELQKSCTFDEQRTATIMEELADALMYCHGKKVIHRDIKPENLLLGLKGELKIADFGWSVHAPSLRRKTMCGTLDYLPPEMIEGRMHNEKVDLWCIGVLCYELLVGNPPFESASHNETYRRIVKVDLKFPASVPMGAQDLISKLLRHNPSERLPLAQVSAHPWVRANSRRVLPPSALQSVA

Take `O=C(Cn1cc(Nc2ncc3cnn(Cc4cc(F)cc(N5CCOCC5=O)c4)c3n2)cn1)N1CCNCC1` [Example 109, 4-(3-fluoro-5-((6-((1-(2-oxo-2-(piperazin-1-yl)ethyl)-1H-pyrazol-4-yl)amino)-1H-pyrazolo[3,4-d]pyrimidin-1-yl)methyl)phenyl)morpholin-3-one]: the “JAK3/AurB Fold Selectivity” value was 10-50 Fold and the pIC50 is 6.00 to 7.00.
The matching figures for `Cn1cc(Nc2ncc3cnn(Cc4c(F)c(F)cc(C(=O)N5CCOCC5)c4F)c3n2)cn1` [Example 110, morpholino(2,4,5-trifluoro-3-((6-((1-methyl-1H-pyrazol-4-yl)amino)-1H-pyrazolo[3,4-d]pyrimidin-1-yl)methyl)phenyl)methanone]: 3-10 Fold and 6.00 to 7.00.
The matching figures for `O=C(c1cc(F)c(F)c(Cn2ncc3cnc(Nc4cnn(CCO)c4)nc32)c1F)N1CCOCC1` [Example 111, morpholino(2,4,5-trifluoro-3-((6-((1-(2-hydroxyethyl)-1H-pyrazol-4-yl)amino)-1H-pyrazolo[3,4-d]pyrimidin-1-yl)methyl)phenyl)methanone]: 10-50 Fold and 6.00 to 7.00.
The matching figures for `C[C@H]1COCCN1c1cccc(Cn2ncc3cnc(Nc4cnn(C)c4)nc32)c1` [Example 112, (S)-N-(1-methyl-1H-pyrazol-4-yl)-1-(3-(3-methylmorpholino)benzyl)-1H-pyrazolo[3,4-d]pyrimidin-6-amine]: more than 50 Fold and 5.00 to 6.00.
Consider `C[C@@H]1COCCN1c1cccc(Cn2ncc3cnc(Nc4cnn(C)c4)nc32)c1` [Example 113, (R)-N-(1-methyl-1H-pyrazol-4-yl)-1-(3-(3-methylmorpholino)benzyl)-1H-pyrazolo[3,4-d]pyrimidin-6-amine], for which the “JAK3/AurB Fold Selectivity” value was more than 50 Fold and the pIC50 is 5.00 to 6.00.
The matching figures for `Cn1cc(Nc2ncc3cnn(Cc4cccc(NC5COC5)c4)c3n2)cn1` [Example 114, N-(1-methyl-1H-pyrazol-4-yl)-1-(3-(oxetan-3-ylamino)benzyl)-1H-pyrazolo[3,4-d]pyrimidin-6-amine]: 10-50 Fold and 6.00 to 7.00.
As to `Cn1cc(Nc2ncc3cnn(Cc4cccc(-c5cnn(C)c5)c4)c3n2)cn1` [Example 115, N-(1-methyl-1H-pyrazol-4-yl)-1-(3-(1-methyl-1H-pyrazol-4-yl)benzyl)-1H-pyrazolo[3,4-d]pyrimidin-6-amine], the “JAK3/AurB Fold Selectivity” value is reported as more than 50 Fold and the pIC50 is 5.00 to 6.00.
The matching figures for `CCn1cc(-c2cccc(Cn3ncc4cnc(Nc5cnn(C)c5)nc43)c2)cn1` [Example 116, 1-(3-(1-ethyl-1H-pyrazol-4-yl)benzyl)-N-(1-methyl-1H-pyrazol-4-yl)-1H-pyrazolo[3,4-d]pyrimidin-6-amine]: more than 50 Fold and 5.00 to 6.00.
The like results for `CC(C)n1cc(-c2cccc(Cn3ncc4cnc(Nc5cnn(C)c5)nc43)c2)cn1` [Example 117, 1-(3-(1-isopropyl-1H-pyrazol-4-yl)benzyl)-N-(1-methyl-1H-pyrazol-4-yl)-1H-pyrazolo[3,4-d]pyrimidin-6-amine] were, in that order, more than 50 Fold and not above 5.00.
The matching figures for `Cn1cc(Nc2ncc3cnn(Cc4cccc(-c5cn[nH]c5)c4)c3n2)cn1` [Example 118, 1-(3-(1H-pyrazol-4-yl)benzyl)-N-(1-methyl-1H-pyrazol-4-yl)-1H-pyrazolo[3,4-d]pyrimidin-6-amine]: 10-50 Fold and 5.00 to 6.00.
Turning to `CCCn1cc(-c2cccc(Cn3ncc4cnc(Nc5cnn(C)c5)nc43)c2)cn1` [Example 119, N-(1-methyl-1H-pyrazol-4-yl)-1-(3-(1-propyl-1H-pyrazol-4-yl)benzyl)-1H-pyrazolo[3,4-d]pyrimidin-6-amine], the “JAK3/AurB Fold Selectivity” value was more than 50 Fold and the pIC50 is 5.00 to 6.00.
The like results for `Cn1cc(Nc2ncc3cnn(Cc4cccc(-c5cnn(CC(N)=O)c5)c4)c3n2)cn1` [Example 120, 2-(4-(3-((6-((1-methyl-1H-pyrazol-4-yl)amino)-1H-pyrazolo[3,4-d]pyrimidin-1-yl)methyl)phenyl)-1H-pyrazol-1-yl)acetamide] were, in that order, more than 50 Fold and 5.00 to 6.00.
On to `Cn1cc(Nc2ncc3cnn(Cc4cccc(-c5cnn(CCO)c5)c4)c3n2)cn1` [Example 121, 2-(4-(3-((6-((1-methyl-1H-pyrazol-4-yl)amino)-1H-pyrazolo[3,4-d]pyrimidin-1-yl)methyl)phenyl)-1H-pyrazol-1-yl)ethanol], for which the “JAK3/AurB Fold Selectivity” value is 10-50 Fold and the negative-log IC50 (pIC50) is 5.00 to 6.00.
The matching figures for `Cn1cc(-c2cccc(Cn3ncc4cnc(Nc5cnn(CCO)c5)nc43)c2)cn1` [Example 122, 2-(4-((1-(3-(1-methyl-1H-pyrazol-4-yl)benzyl)-1H-pyrazolo[3,4-d]pyrimidin-6-yl)amino)-1H-pyrazol-1-yl)ethanol]: more than 50 Fold and 6.00 to 7.00.
The like results for `Cn1cc(Nc2ncc3cnn(Cc4cccc(-c5cnn(C)c5)c4F)c3n2)cn1` [Example 123, 1-(2-fluoro-3-(1-methyl-1H-pyrazol-4-yl)benzyl)-N-(1-methyl-1H-pyrazol-4-yl)-1H-pyrazolo[3,4-d]pyrimidin-6-amine] were, in that order, more than 50 Fold and 5.00 to 6.00.
The matching figures for `Cn1cc(-c2cccc(Cn3ncc4cnc(Nc5cnn(CCO)c5)nc43)c2F)cn1` [Example 124, 2-(4-((1-(2-fluoro-3-(1-methyl-1H-pyrazol-4-yl)benzyl)-1H-pyrazolo[3,4-d]pyrimidin-6-yl)amino)-1H-pyrazol-1-yl)ethanol]: 10-50 Fold and 6.00 to 7.00.
Consider `Cn1cc(Nc2ncc3cnn(Cc4cc(F)cc(-c5cnn(C)c5)c4)c3n2)cn1` [Example 125, 1-(3-fluoro-5-(1-methyl-1H-pyrazol-4-yl)benzyl)-N-(1-methyl-1H-pyrazol-4-yl)-1H-pyrazolo[3,4-d]pyrimidin-6-amine], for which the “JAK3/AurB Fold Selectivity” value is more than 50 Fold and the pIC50 was 5.00 to 6.00.
The matching figures for `Cn1cc(Nc2ncc3cnn(Cc4cc(-c5cnn(C)c5)cc(F)c4F)c3n2)cn1` [Example 126, 1-(2,3-difluoro-5-(1-methyl-1H-pyrazol-4-yl)benzyl)-N-(1-methyl-1H-pyrazol-4-yl)-1H-pyrazolo[3,4-d]pyrimidin-6-amine]: more than 50 Fold and not above 5.00.
The like results for `Cn1cc(-c2cc(F)c(F)c(Cn3ncc4cnc(Nc5cnn(CCO)c5)nc43)c2)cn1` [Example 127, 2-(4-((1-(2,3-difluoro-5-(1-methyl-1H-pyrazol-4-yl)benzyl)-1H-pyrazolo[3,4-d]pyrimidin-6-yl)amino)-1H-pyrazol-1-yl)ethanol] were, in that order, 10-50 Fold and 6.00 to 7.00.
